Results from US20050009809A1, “Acridine derivatives and their use as medicaments” (priority 2003, published 2005).
Values after ≈ are worked out from the molar mass of the structure shown. Like-named read-outs stand apart in the source and are kept apart here.

What was measured:
[1] = test system: human cervical carcinoma cell line KB/HeLa; test: XTT proliferation assay, KB/HeLa; assay type: cell-based; settings: Homo sapiens, read-out: XTT proliferation assay, EC50, KB/Hela
Text: (§1) The substances according to the invention were investigated for their antiproliferative activity in a proliferation test on established tumor cell lines. The test used determines the cellular dehydrogenase activity and makes possible a determination of the cell vitality and indirectly the cell count. The cell lines used are the human cervical carcinoma cell line KB/HeLa (ATCC CCL17), the ovarian adenocarcinoma cell line SKOV-3 (ATCC HTB77), the human glioblastoma cell line […] (NCI 503138) and the lung carcinoma cell line NCI-H460 (NCI 503473).
(§2) The adherently growing tumor cell lines KB/HeLa, SKOV-3, SF-268 and NCI-H460 were cultured under standard conditions in a fumigation incubator at 37° C., 5% CO2 and 95% atmospheric humidity. On experimental day 1, the cells are detached using trypsin/EDTA and pelleted by centrifugation. Subsequently, the cell pellet is resuspended in the respective culture medium at the corresponding cell count and reacted in a 96-well microtiter plate. The plates are then cultured overnight in the fumigation incubator. The test substances are prepared as 1 mg/ml stock solutions in DMSO and diluted to the appropriate concentrations on experimental day 2 using culture medium. The substances in culture medium are then added to the cells and incubated in the fumigation incubator for 45 h. As a control, cells which are not treated with test substance are used. For the XTT assay, 1 mg/ml of XTT (sodium 3′-[1-(phenylaminocarbonyl)-3,4-tetrazolium]-bis(4-methoxy-6-nitro)benzenesulfonic acid) is dissolved in RPMI-1640 medium without Phenol Red. Additionally, a 0.383 mg/ml PMS (N-methyldibenzopyrazine methylsulfate) solution in phosphate-buffered saline solution (PBS) is prepared. On experimental day 4, 75 μl/well of XTT-PMS mixture is pipetted onto the cell plates which in the meantime have been incubated with the test substances for 45 h. For this, shortly before use, the XTT solution is mixed with the PMS solution in the ratio 50:1 (vol:vol). The cell plates are then incubated in the fumigation incubator for a further 3 h and the optical density (OD490 nm) is determined in a photometer. By means of the OD490 nm determined, the percentage inhibition is calculated relative to the control and plotted semilogarithmically in the form of a concentration-action curve. The EC50 is calculated by means of a regression analysis from the concentration-action curve using the program Graphpad Prism.

[2] = test system: ovarian adenocarcinoma cell line SKOV-3; test: XTT proliferation assay, SKOV-3; assay type: cell-based, human; settings: Homo sapiens, read-out: XTT proliferation assay, EC50, SKOV3
Text: as §1, §2

[3] = test system: human glioblastoma cell line SF-268; test: XTT proliferation assay, SF-268; assay type: cell-based; settings: Homo sapiens, read-out: XTT proliferation assay, EC50, SF-268
Text: as §1, §2

[4] = test system: lung carcinoma cell line NCI-H460; test: XTT proliferation assay, NCI-H460; assay type: cell-based, human; settings: Homo sapiens, read-out: XTT proliferation assay, EC50, NCI-H460
Text: as §1, §2

[5] = test system: bovine tubulin with 30% associated proteins (MAPs); test: Tubulin polymerization assay; assay type: biochemical; settings: tubulin with 30% MAPs, average of two independent experiments
Description: The compounds according to the invention were tested for inhibition of the polymerization of bovine tubulin in an in-vitro test. In this test, tubulin purified by cycles of polymerization and depolymerization is employed, which is polymerized by addition of GTP and warming. In Table 2, the inhibition or EC50 values of the inhibition of polymerization of tubulin with 30% associated proteins (MAPs) are indicated.
The assay is carried out based on the method of Bollag et al. Lyophilized bovine tubulin (cytoskeleton, ML113 tubulin 30% MAPs) is dissolved in a concentration of 2 mg/ml (ML113 in 80 mM PIPES, 0.5 mM EGTA, 2 mM MgCl2, pH 6.9, 1 mM GTP) or 5 mg/ml (TL238 in 80 mM PIPES, 1 mM EGTA, 0.5 mM MgCl2, 20% (v:v) glycerol pH 6.9, 1 mM GTP). The test substances are diluted in 10% DMSO (v:v) and 5 μl of the dilutions are transferred to a 96-well microtiter plate (Nunc, half area plate). After addition of 45 μl of the tubulin solution, the polymerization is determined at 340 nm in a Spectramax 190 microtiter plate reader (Molecular Devices) by means of a kinetics program at 30 sec intervals over a period of 20 min. The resulting area under curve values are used for the calculation of the inhibition with respect to the untreated control. The controls are untreated cells (±induction). Induction was carried out using 3 μM of muristerone A. On day 1, the cells are sown (±muristerone A) and incubated at 37° C. for 24 h. On day 2, the test substance is added (control DMSO) and incubation at 37° C. is continued further 45 h, after which a standard XTT assay is carried out.

physchem = settings: water, thermodynamic from solid
Description: (§3) The saturation solubility in water is determined as described below. For incipient dissolution of the substances and to improve wetting of the samples, at most 1% of DMSO is added. To check the content, an HPLC-UV method was used.

[6] = Saturation solubility in water; settings: versus comparison substances of WO0208194
Description: as §3

[7] = SK-OV-3, SKOV-3 cells, 45 h incubation
[8] = NCI-H460 cells, 45 h incubation

EC50 ([1]; KB/HeLa cells, 45 h incubation) | EC50 [2, 7] | EC50 ([3]; SF-268 cells, 45 h incubation) | EC50 [4, 8] | Inhibition of tubulin polymerization using 30% MAPs, EC50 [5] | melting point | SMILES | Inhibition of tubulin polymerization in [% INH at 10 μg/ml] using 30% MAPs [5] | solubility (physchem) | Water solubility compared to the comparison substances [6] | EC50 ([1]; HeLa, 45 h) | EC50 ([2]; SK-OV-3, 45 h) | EC50 ([3]; SF-268, 45 h) | EC50 ([4]; NCI-H460, 45 h)
0.013 µg/mL | 0.011 µg/mL | 0.018 µg/mL | 0.019 µg/mL | 1.35 µg/mL |  | CC(=O)Oc1cccc(N2CCN(C(=O)c3c4ccccc4nc4ccccc34)CC2)c1 [Compound 3, 3-[4-(Acridin-9-ylcarbonyl)piperazin-1-yl]phenyl acetate] | 87 % INH |  |  |  |  |  | 
0.033 µg/mL (≈ 0.0609 µM) | 0.026 µg/mL (≈ 0.048 µM) | 0.043 µg/mL (≈ 0.0794 µM) | 0.042 µg/mL (≈ 0.0775 µM) |  | 107 to 108 °C | CC1(C)OCC(COC(=O)Oc2cccc(N3CCN(C(=O)c4c5ccccc5nc5ccccc45)CC3)c2)O1 (centres unmarked) [Compound 16, 3-[4-(Acridin-9-ylcarbonyl)piperazin-1-yl]phenyl 2,2-dimethyl-[1,3]-dioxolan-4-ylmethyl carbonate] |  |  |  |  |  |  | 
0.078 µg/mL | 0.048 µg/mL | 0.069 µg/mL | 0.079 µg/mL | 4.82 µg/mL |  | CS(=O)(=O)Oc1cccc(N2CCN(C(=O)c3c4ccccc4nc4ccccc34)CC2)c1 [Compound 15, 3-[4-(Acridin-9-ylcarbonyl)piperazin-1-yl]phenyl methanesulfonate] | 94.8 % INH |  |  |  |  |  | 
0.021 µg/mL (≈ 0.0429 µM) | 0.019 µg/mL (≈ 0.0388 µM) | 0.032 µg/mL (≈ 0.0653 µM) | 0.029 µg/mL (≈ 0.0592 µM) |  | 162 to 163 °C | O=C(OCCCl)Oc1cccc(N2CCN(C(=O)c3c4ccccc4nc4ccccc34)CC2)c1 [Compound 6, 3-[4-(Acridin-9-ylcarbonyl)piperazin-1-yl]phenyl 2-chloroethyl carbonate] | 70 % INH |  |  |  |  |  | 
0.017 µg/mL (≈ 0.0385 µM) | 0.015 µg/mL (≈ 0.034 µM) | 0.024 µg/mL (≈ 0.0544 µM) | 0.021 µg/mL (≈ 0.0476 µM) | 1.08 µg/mL |  | COC(=O)Oc1cccc(N2CCN(C(=O)c3c4ccccc4nc4ccccc34)CC2)c1 [Compound 5, 3-[4-(Acridin-9-ylcarbonyl)piperazin-1-yl]phenyl methyl carbonate] | 94.3 % INH |  |  |  |  |  | 
0.125 µg/mL (≈ 0.313 µM) | 0.095 µg/mL (≈ 0.238 µM) | 0.137 µg/mL (≈ 0.343 µM) | 0.214 µg/mL (≈ 0.536 µM) | 4.57 µg/mL |  | O=C(c1c2ccccc2nc2ccc(O)cc12)N1CCN(c2cccc(O)c2)CC1 [Compound 38, (2-Hydroxyacridin-9-yl)-[4-(3-hydroxyphenyl)piperazin-1-yl]methanone] |  |  |  |  |  |  | 
0.064 µg/mL (≈ 0.155 µM) | 0.042 µg/mL (≈ 0.102 µM) | 0.076 µg/mL (≈ 0.184 µM) | 0.067 µg/mL (≈ 0.162 µM) | 2.06 µg/mL |  | COc1cccc(N2CCN(C(=O)c3c4ccccc4nc4ccc(O)cc34)CC2)c1 [Compound 37, (2-Hydroxyacridin-9-yl)-[4-(3-methoxyphenyl)piperazin-1-yl]methanone] |  |  |  |  |  |  | 
 |  |  |  |  |  | O=C(c1c2ccccc2nc2ccccc12)N1CCN(c2cccc(OP(=O)([O-])[O-])c2)CC1.[Na+].[Na+] [Compound 33, Mono-{3-[4-(acridin-9-ylcarbonyl)piperazin-1-yl]phenyl}phosphate disodium salt] |  | 9090 µg/mL |  | 0.013 µg/mL | 0.038 µg/mL | 0.057 µg/mL | 0.067 µg/mL

SMILES | EC50 ([1]; KB/HeLa cells, 45 h incubation) | EC50 [2, 7] | EC50 ([3]; SF-268 cells, 45 h incubation) | EC50 [4, 8] | Inhibition of tubulin polymerization using 30% MAPs, EC50 [5] | melting point | Inhibition of tubulin polymerization in [% INH at 10 μg/ml] using 30% MAPs [5] | solubility (physchem) | Water solubility compared to the comparison substances [6] | EC50 ([1]; HeLa, 45 h) | EC50 ([2]; SK-OV-3, 45 h) | EC50 ([3]; SF-268, 45 h) | EC50 ([4]; NCI-H460, 45 h)
O=C(NCCO)Oc1cccc(N2CCN(C(=O)c3c4ccccc4nc4ccccc34)CC2)c1 [Compound 7, 3-[4-(Acridin-9-ylcarbonyl)piperazin-1-yl]phenyl (2-hydroxyethyl)carbamate] | 0.029 µg/mL (≈ 0.0616 µM) | 0.019 µg/mL (≈ 0.0404 µM) | 0.031 µg/mL (≈ 0.0659 µM) | 0.036 µg/mL (≈ 0.0765 µM) |  |  |  | 108 µg/mL (≈ 230 µM) | greatly improved water solubilities |  |  |  | 
